Results published in ChEMBL document CHEMBL3627677, “Novel 2H-chromen-2-one derivatives of resveratrol: Design, synthesis, modeling and use as human monoamine oxidase inhibitors” (Eur J Med Chem, 2015).

Key:
[1] = target: T1, Amine oxidase [flavin-containing] A (Homo sapiens, UniProt P21397); assay: Inhibition of recombinant human MAOA using p-tyramine as substrate assessed as H2O2 production preincubated for 15 mins followed by substrate addition by fluorometric analysis
T1 sequence (P21397 whole entry): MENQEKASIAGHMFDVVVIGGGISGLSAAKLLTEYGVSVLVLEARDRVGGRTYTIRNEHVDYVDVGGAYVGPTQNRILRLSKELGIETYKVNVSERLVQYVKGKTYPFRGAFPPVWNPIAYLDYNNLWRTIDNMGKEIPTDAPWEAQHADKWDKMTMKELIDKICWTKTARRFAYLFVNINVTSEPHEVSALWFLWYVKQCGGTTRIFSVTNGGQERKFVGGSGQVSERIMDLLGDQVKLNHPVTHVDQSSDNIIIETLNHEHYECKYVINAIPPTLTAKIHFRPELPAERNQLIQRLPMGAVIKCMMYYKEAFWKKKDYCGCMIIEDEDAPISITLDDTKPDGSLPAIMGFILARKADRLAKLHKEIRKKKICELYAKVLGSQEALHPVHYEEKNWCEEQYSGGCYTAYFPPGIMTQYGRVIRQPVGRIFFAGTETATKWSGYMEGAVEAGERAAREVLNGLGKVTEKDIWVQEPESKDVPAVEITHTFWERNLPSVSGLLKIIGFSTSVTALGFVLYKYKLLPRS

[2] = target: T2, Amine oxidase [flavin-containing] B (Homo sapiens, UniProt P27338); assay: Inhibition of recombinant human MAOB using p-tyramine as substrate assessed as H2O2 production preincubated for 15 mins followed by substrate addition by fluorometric analysis
T2 sequence (P27338 whole entry): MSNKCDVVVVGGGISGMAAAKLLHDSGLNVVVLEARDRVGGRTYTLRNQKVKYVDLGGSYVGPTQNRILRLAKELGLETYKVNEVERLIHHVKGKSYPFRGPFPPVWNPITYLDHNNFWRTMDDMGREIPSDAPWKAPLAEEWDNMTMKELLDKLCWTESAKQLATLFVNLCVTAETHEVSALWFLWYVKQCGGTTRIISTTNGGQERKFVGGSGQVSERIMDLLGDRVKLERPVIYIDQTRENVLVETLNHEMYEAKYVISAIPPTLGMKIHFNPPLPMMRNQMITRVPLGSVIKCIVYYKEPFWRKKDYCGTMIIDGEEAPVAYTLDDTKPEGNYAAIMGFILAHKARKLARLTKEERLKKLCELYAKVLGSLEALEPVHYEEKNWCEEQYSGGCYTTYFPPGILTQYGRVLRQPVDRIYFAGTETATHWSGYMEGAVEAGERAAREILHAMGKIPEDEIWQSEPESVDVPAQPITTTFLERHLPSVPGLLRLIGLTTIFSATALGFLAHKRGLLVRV

Homo sapiens [3] = species: Homo sapiens; assay: Selectivity ratio of IC50 for recombinant human MAOA to IC50 for recombinant human MAOB
Homo sapiens [4] = species: Homo sapiens; assay: Selectivity ratio of IC50 for recombinant human MAOB to IC50 for recombinant human MAOA
[5] = Toxicity in SPF Kuming mouse assessed as death at 500 to 1000 mg/kg, po measured up to 14 days; type: organism-based; details: in vivo

| IC50 [1] [µM] | IC50 [2] [µM] | Ratio IC50 (Homo sapiens [3]) | Ratio IC50 (Homo sapiens [4]) | Structure (SMILES) | LD50 at 336 h [5] [mg/kg] |
| --- | --- | --- | --- | --- | --- |
| > 60 | > 60 |  |  | COc1ccc(/C=C/c2cc(OC)cc(OC)c2/C=C/C(=O)c2cc3cc(Br)cc(OC)c3oc2=O)cc1 |  |
| 21.2 | 35.5 | 0.6 | 1.67 | COc1ccc(/C=C/c2cc(OC)cc(OC)c2/C=C/C(=O)c2cc3c(OC)cc(OC)cc3oc2=O)cc1 |  |
| 41.7 | 9.17 | 4.54 | 0.22 | COc1ccc(/C=C/c2cc(OC)cc(OC)c2/C=C/C(=O)c2cc3ccccc3oc2=O)cc1 |  |
| > 60 | 7.36 | > 8.15 | < 0.12 | COc1ccc(/C=C/c2cc(OC)cc(OC)c2/C=C/C(=O)c2cc3ccc(Cl)cc3oc2=O)cc1 |  |
| 12.1 | > 60 | < 0.2 | > 4.95 | COc1ccc(/C=C/c2cc(OC)cc(OC)c2/C=C/C(=O)c2cc3cc(Br)ccc3oc2=O)cc1 |  |
|  | > 60 |  |  | COc1ccc(/C=C/c2cc(OC)cc(OC)c2/C=C/C(=O)c2cc3ccc(N(C)C)cc3oc2=O)cc1 |  |
| > 60 | 20 | > 3 | < 0.33 | COc1ccc(/C=C/c2cc(OC)cc(OC)c2/C=C/C(=O)c2cc3cccc(C)c3oc2=O)cc1 |  |
| > 60 | > 60 |  |  | COc1ccc(/C=C/c2cc(OC)cc(OC)c2/C=C/C(=O)c2cc3cccc(Br)c3oc2=O)cc1 |  |
| > 60 | 22.4 | > 2.68 | < 0.37 | COc1ccc(/C=C/c2cc(OC)cc(OC)c2/C=C/C(=O)c2cc3cccc(OC)c3oc2=O)cc1 |  |
| > 60 | 14.5 | > 4.13 | < 0.24 | COc1ccc(/C=C/c2cc(OC)cc(OC)c2/C=C/C(=O)c2cc3c(OC)cccc3oc2=O)cc1 |  |
| > 60 | 4.2 | > 14.3 | < 0.07 | COc1ccc(/C=C/c2cc(OC)cc(OC)c2/C=C/C(=O)c2cc3ccc(OC)cc3oc2=O)cc1 |  |
| 30.4 | 5.09 | 5.97 | 0.17 | COc1ccc(/C=C/c2cc(OC)cc(OC)c2/C=C/C(=O)c2cc3cc(C)ccc3oc2=O)cc1 |  |
| > 60 | > 60 |  |  | COc1ccc(/C=C/c2cc(OC)cc(OC)c2/C=C/C(=O)c2cc3cc(Cl)ccc3oc2=O)cc1 |  |
| 44.3 | 10.2 | 4.36 | 0.23 | COc1ccc(/C=C/c2cc(OC)cc(OC)c2/C=C/C(=O)c2cc3cc(F)ccc3oc2=O)cc1 |  |
| 3.01 | 55.3 | 0.05 | 18.4 | COc1ccc(/C=C/c2cc(OC)cc(OC)c2/C=C/C(=O)c2cc3ccc(Br)cc3oc2=O)cc1 |  |
| > 60 | > 60 |  |  | COc1ccc(/C=C/c2cc(OC)cc(OC)c2/C=C/C(=O)c2cc3cc(OC)ccc3oc2=O)cc1 |  |
| 5.3 | 50.5 | 0.1 | 9.53 | C=CCc1cc(OC)c2oc(=O)c(C(=O)/C=C/c3c(/C=C/c4ccc(OC)cc4)cc(OC)cc3OC)cc2c1 |  |
| 7.07 | 48.1 | 0.15 | 6.8 | CCOc1ccc2cc(C(=O)/C=C/c3c(/C=C/c4ccc(OC)cc4)cc(OC)cc3OC)c(=O)oc2c1 |  |

| Structure (SMILES) | IC50 [1] [µM] | IC50 [2] [µM] | Ratio IC50 (Homo sapiens [3]) | Ratio IC50 (Homo sapiens [4]) | LD50 at 336 h [5] [mg/kg] |
| --- | --- | --- | --- | --- | --- |
| COc1ccc(/C=C/c2cc(OC)cc(OC)c2/C=C/C(=O)c2cc3ccc(C)cc3oc2=O)cc1 | 58.2 | 2.78 | 20.9 | 0.05 | > 1000 |
| CCOc1cccc2cc(C(=O)/C=C/c3c(/C=C/c4ccc(OC)cc4)cc(OC)cc3OC)c(=O)oc12 | 3.2 | > 60 | < 0.05 | > 18.8 | > 1000 |
